The results in this text go back to patent US11666533B2, “Emulsion formulations of multikinase inhibitors” (Cloudbreak Therapeutics, LLC, priority 2018, dated 2023).

Data set [1] in a line: Solubilizer screen for nintedanib (Example 3). In kind it is physicochemical. The following applies: for pH: pH of filtrate. On the procedure: Tare 1.5 mL Eppendorf tube 2. […] Add solubilizer and record weight 4. Add water pH 5 (except F3 & F4) and record weight 5. Beadbeater mix for 120 seconds […] Place on rotating mixer for overnight at ambient temperature 7. Filter through 0.2 μm SPIN-X centrifuge filter 8. Measure pH of filtrate 9. Assay filtrate using CBT-001 standard solution

Data set [2] is described as follows: Solubility of nintedanib in a representative emulsion system (F70). It counts as physicochemical. The following applies: aqueous with cosolvent or surfactant or cyclodextrin; emulsion system: castor oil 1, polysorbate 80 1, polyoxyl-35 castor oil 2, water 95, none in Table 6. The source says:
Various emulsion systems were identified for investigation based on the solubilizer results.

The structures appear in SMILES notation. Values after ≈ are worked out from the molar mass of the structure shown.

Usually solubility stands for how much of the substance goes into solution per volume. In the case of `COC(=O)c1ccc2c(c1)NC(=O)/C2=C(\Nc1ccc(N(C)C(=O)CN2CCN(C)CC2)cc1)c1ccccc1` [nintedanib], the pH in data set [1] (solubilizer BZA) came out at 5.6; in data set [1] (solubilizer BZK), 5.6; in data set [1] (solubilizer EtOH), 6.1; in data set [1] (solubilizer PEG 400), 5.6; in data set [1] (solubilizer PEG 8000) it was 6.0; in data set [1] (solubilizer PG), 6.0. Besides, the pH in data set [1] (solubilizer PLXMR 188) was found to be 6.5; in data set [1] (solubilizer PLXMR 407) it was 6.3; in data set [1] (solubilizer polysorbate 20), 6.6; in data set [1] (solubilizer polysorbate 80), 6.7. Also, the Nintedanib solubility in data set [1] (solubilizer BZA (1% benzyl alcohol in water, F-1)) was found to be 0.01 mg/g; in data set [1] (solubilizer BZK (1% in water, F-5)), 0.20 mg/g; in data set [1] (solubilizer Castor oil (99.5%, F-3)) it was 0.37 mg/g; in data set [1] (solubilizer EtOH (1% ethanol in water, F-2)), 0.01 mg/g; in data set [1] (solubilizer Mineral oil (99.5%, F-4)), 0.00 mg/g; in data set [1] (solubilizer PEG 400 (5% in water, F-10)), 0.17 mg/g. Further, the Nintedanib solubility turned out to be 0.01 mg/g in data set [1] (solubilizer PEG 8000 (2% in water, F-11)); 0.01 mg/g in data set [1] (solubilizer PG (1% propylene glycol in water, F-12)); 0.01 mg/g in data set [1] (solubilizer PLXMR 188 (1% Poloxamer 188 in water, F-8)); 0.01 mg/g in data set [1] (solubilizer PLXMR 407 (1% Poloxamer 407 in water, F-9)); 0.06 mg/g in data set [1] (solubilizer polysorbate 20 (1% in water, F-6)); 0.25 mg/g in data set [1] (solubilizer polysorbate 80 (1% in water, F-7)). Moreover, in data set [2], the solubility fell in the range of 3000 to 5000 µg/mL (≈ 5.56 to 9.27 mM).
